# Experimental data: PMC4510386, “Transglycosylation Activity of Glycosynthase Mutants of Endo-β-N-Acetylglucosaminidase from Coprinopsis cinerea” (PLoS ONE, 2015)
# Target: T1, Endo-CC1 (Coprinopsis cinerea, UniProt A8P7P2)
# T1 construct: gene CC1G_11102; full-length cDNA, 787 residues, His6-tagged, pET23b NdeI/XhoI, E. coli BL21-CodonPlus (DE3), HisTrap purified
# Assay: HPLC of Dns-Asn-GlcNAc release, Lineweaver-Burk
# Assay type: biochemical
# Settings: 100 mM phosphate pH 7.5, 37 C; hydrolysis
# T1 sequence (A8P7P2 entry or part of it): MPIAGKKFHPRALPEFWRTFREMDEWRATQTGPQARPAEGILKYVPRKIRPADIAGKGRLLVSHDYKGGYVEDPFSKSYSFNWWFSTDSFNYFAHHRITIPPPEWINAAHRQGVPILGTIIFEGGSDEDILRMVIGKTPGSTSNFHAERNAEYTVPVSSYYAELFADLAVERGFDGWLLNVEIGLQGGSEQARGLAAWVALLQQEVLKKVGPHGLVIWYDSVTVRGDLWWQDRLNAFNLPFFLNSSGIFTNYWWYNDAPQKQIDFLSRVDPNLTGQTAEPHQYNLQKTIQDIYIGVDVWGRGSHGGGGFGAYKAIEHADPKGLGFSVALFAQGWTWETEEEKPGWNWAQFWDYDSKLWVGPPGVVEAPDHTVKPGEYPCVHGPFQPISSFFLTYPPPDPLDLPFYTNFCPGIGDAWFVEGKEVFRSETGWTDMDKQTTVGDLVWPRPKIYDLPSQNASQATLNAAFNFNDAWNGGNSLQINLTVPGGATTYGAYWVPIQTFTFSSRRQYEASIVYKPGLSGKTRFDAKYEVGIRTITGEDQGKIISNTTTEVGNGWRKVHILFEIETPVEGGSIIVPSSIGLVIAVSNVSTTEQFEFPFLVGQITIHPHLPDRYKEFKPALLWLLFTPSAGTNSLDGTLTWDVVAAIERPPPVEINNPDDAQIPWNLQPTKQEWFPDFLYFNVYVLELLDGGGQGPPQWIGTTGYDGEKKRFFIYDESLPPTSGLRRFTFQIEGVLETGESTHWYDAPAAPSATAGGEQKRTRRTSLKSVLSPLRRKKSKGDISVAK
substance,measurement,value
Dns-SG,Km,1900 µM
